Test results as given in the supplement of paper PMC10307832.

What was measured:
Experiment in all cases: relative viability (nuclei count vs DMSO), 5 days (fraction); higher = more cells survive
Motesanib + AZD7762 = compound: CC1(C)CNc2cc(NC(=O)c3cccnc3NCc3ccncc3)ccc21 [Motesanib] + NC(=O)Nc1cc(-c2cccc(F)c2)sc1C(=O)N[C@H]1CCCNC1 [AZD7762] (partner 0.2 µM)
How it was run: (§1)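 Values are medians from duplicate plates. Each reflects relative viability, defined as the nuclei count of treated wells over that of vehicle wells. Lung cancer cell lines in 1536-well plates were pin-tool dosed one day after seeding with one drug alone or with a fixed anchor-drug dose plus five library-drug doses (not always all listed) in √10 steps, then fixed, stained and imaged at 4× after 5 days.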

[1] = compound: C[C@@]1(C(=O)Nc2ccc(F)nc2)CCCN1c1nc(Nc2cc(C3CC3)n[nH]2)c2cccn2n1 + C[C@@H](Oc1cc(-c2cnn(C3CCNCC3)c2)cnc1N)c1c(Cl)ccc(F)c1Cl [Crizotinib] (partner 1 µM)
How it was run: as §1

[2] = compound: C[C@@]1(C(=O)Nc2ccc(F)nc2)CCCN1c1nc(Nc2cc(C3CC3)n[nH]2)c2cccn2n1 + COc1cc2c(Oc3ccc(NC(=O)C4(C(=O)Nc5ccc(F)cc5)CC4)cc3F)ccnc2cc1OCCCN1CCOCC1 [Foretinib] (partner 0.25 µM)
How it was run: as §1

Motesanib + Olaparib = compound: CC1(C)CNc2cc(NC(=O)c3cccnc3NCc3ccncc3)ccc21 [Motesanib] + O=C(c1cc(Cc2n[nH]c(=O)c3ccccc23)ccc1F)N1CCN(C(=O)C2CC2)CC1 [Olaparib] (partner 8 µM)
How it was run: as §1

Cell Line | relative viability (Motesanib + AZD7762; first compound 0.01 µM) | relative viability (Motesanib + AZD7762; first compound 0.03162 µM) | relative viability (Motesanib + AZD7762; first compound 0.1 µM) | relative viability (Motesanib + AZD7762; first compound 0.3162 µM) | relative viability (Motesanib + AZD7762; first compound 1 µM) | relative viability ([1]; first compound 0.04 µM) | relative viability ([1]; first compound 0.1265 µM) | relative viability ([1]; first compound 0.4 µM) | relative viability ([1]; first compound 1.265 µM) | relative viability ([2]; first compound 0.04 µM) | relative viability ([2]; first compound 0.1265 µM) | relative viability ([2]; first compound 0.4 µM) | relative viability ([2]; first compound 1.265 µM) | relative viability (Motesanib + Olaparib; first compound 0.01 µM) | relative viability (Motesanib + Olaparib; first compound 0.03162 µM) | relative viability (Motesanib + Olaparib; first compound 0.1 µM) | relative viability (Motesanib + Olaparib; first compound 0.3162 µM) | relative viability (Motesanib + Olaparib; first compound 1 µM)
LCLC-103H | 0.802 | 0.743 | 0.781 | 0.825 | 0.829 | 1.07 | 1.01 | 0.904 | 1.04 | 0.597 | 0.491 | 0.422 | 0.637 | 0.777 | 0.737 | 0.758 | 0.807 | 0.742
LK-2 | 0.364 | 0.337 | 0.281 | 0.497 | 0.371 | 0.208 | 0.335 | 0.224 | 0.159 | 0.731 | 0.945 | 0.671 | 0.979 | 0.644 | 0.94 | 0.608 | 0.817 | 0.756
LOU-NH91 | 0.746 | 0.732 | 0.782 | 0.789 | 0.779 | 0.736 | 0.812 | 0.667 | 0.725 | 0.938 | 0.94 | 0.86 | 0.948 | 0.925 | 0.98 | 0.88 | 0.943 | 0.959
LU99A | 0.39 | 0.361 | 0.382 | 0.399 | 0.355 | 0.391 | 0.415 | 0.39 | 0.233 | 0.602 | 0.467 | 0.478 | 0.432 | 0.284 | 0.268 | 0.271 | 0.255 | 0.263
LXF-289 | 1.07 | 1.06 | 1.14 | 1.22 | 1.16 | 0.837 | 0.806 | 0.751 | 0.714 | 0.949 | 0.945 | 0.937 | 0.991 | 1.04 | 0.992 | 0.926 | 1.21 | 1.12
NCI-H23 | 0.194 | 0.227 | 0.186 | 0.195 | 0.244 | 0.49 | 0.292 | 0.2 | 0.35 | 0.591 | 0.539 | 0.622 | 0.914 | 0.354 | 0.299 | 0.308 | 0.281 | 0.348
NCI-H322M | 0.568 | 0.531 | 0.53 | 0.488 | 0.452 | 1.04 | 0.75 | 0.613 | 1.15 | 0.907 | 0.608 | 0.62 | 0.655 | 0.82 | 0.762 | 0.886 | 0.803 | 0.812
NCI-H358 | 0.434 | 0.626 | 0.481 | 0.661 | 0.55 | 0.474 | 0.394 | 0.241 | 0.216 | 0.471 | 0.385 | 0.202 | 0.183 | 0.507 | 0.652 | 0.626 | 0.658 | 0.633
NCI-H441 | 0.97 | 1.2 | 1.1 | 1.01 | 0.954 | 0.603 | 0.704 | 0.553 | 0.527 | 0.631 | 0.46 | 0.599 | 0.707 | 0.542 | 0.452 | 0.436 | 0.627 | 0.496
NCI-H460 | 0.56 | 0.633 | 0.772 | 0.653 | 0.611 | 0.985 | 0.699 | 0.639 | 0.331 | 1.06 | 0.939 | 1.03 | 0.87 | 0.413 | 0.396 | 0.484 | 0.446 | 0.402
NCI-H596 | 0.973 | 0.825 | 1.09 | 1.01 | 1.13 | 1.05 | 0.984 | 0.857 | 1.06 | 0.731 | 0.752 | 0.649 | 0.972 | 0.792 | 0.623 | 0.648 | 0.677 | 0.646
NCI-H647 | 0.493 | 0.464 | 0.441 | 0.621 | 0.525 | 1.07 | 1.03 | 0.841 | 0.447 | 1.18 | 1.08 | 0.886 | 1.17 | 0.48 | 0.638 | 0.496 | 0.629 | 0.611
NCI-H650 | 1.05 | 1.09 | 1.07 | 0.965 | 1 | 0.764 | 0.449 | 0.489 | 0.47 | 1.02 | 0.738 | 0.819 | 0.782 | 0.446 | 0.382 | 0.42 | 0.39 | 0.426
NCI-H727 | 0.547 | 0.56 | 0.856 | 0.488 | 0.58 | 0.687 | 0.436 | 0.259 | 0.211 | 0.694 | 0.396 | 0.357 | 0.324 | 0.937 | 0.614 | 0.761 | 0.779 | 0.6
NCI-H838 | 0.895 | 0.872 | 0.984 | 1 | 0.994 | 0.868 | 0.67 | 0.621 | 0.708 | 1.08 | 0.819 | 0.631 | 0.887 | 0.778 | 0.765 | 0.792 | 0.746 | 0.804
NCI-H1355 | 0.778 | 0.54 | 0.837 | 0.687 | 0.673 | 0.896 | 0.824 | 0.728 | 1.02 | 0.929 | 0.87 | 0.701 | 1 | 0.726 | 0.771 | 0.773 | 0.747 | 0.707
NCI-H1437 | 1.05 | 1.08 | 1.15 | 1.11 | 1.11 | 0.932 | 0.714 | 0.561 | 0.762 | 1.31 | 1.2 | 1.04 | 1.11 | 0.637 | 0.631 | 0.63 | 0.682 | 0.657
NCI-H1651 | 0.401 | 0.499 | 0.547 | 0.451 | 0.463 | 0.762 | 0.896 | 0.775 | 0.846 | 0.775 | 0.704 | 0.621 | 0.895 | 0.176 | 0.192 | 0.213 | 0.202 | 0.201
